Test results reported in US9572862B2, “Methods for promoting lipolysis and oxidation in liver and adipose tissue using catestatin” (The Regents of the University of California, priority 2012, dated 2017).
Entries after “also recorded” stand apart in the source; their conditions may differ. No end group written: not given here.

Tests used:
3T3-L1 adipocytes = experiment: Leptin in adipocyte culture media after CST; format: cell-based; details: cultured 3T3-L1 adipocytes
Experimental: FIG. 1. Plasma parameters of wild-type (WT) and Chga-KO mice treated with saline or CST. (A) Plasma CST from saline or CST (5 μg/g BW, i.p./day) treated WT mice (28 week old) on normal chow (NCD) and high fat diet (60% fat for 16 weeks) as well as from Chga-KO mice (28 week old) on NCD. Body weights (B) and epididymal fat pad size normalized to body weight (C) in 28 week old WT and Chga-KO mice treated with saline or CST for 12 days. Plasma triglyceride (TG) (D), glycerol (E), non-esterified fatty acids (NEFA) (F), and leptin (G) in 28 week old WT and Chga-KO mice after treatment with saline or CST for 12 days. (H) Leptin in adipocyte culture media after treatment with saline or CST.
Mice were fasted for 12 hr prior to blood draw. Triglycerides (TG) and non-esterified fatty acids (NEFA) were assayed using kits from Wako Diagnostics (Richmond, Va.). Glycerol was assayed using a kit from Sigma (St Louis, Mo.). Media from the explant cultures and mouse serum were analysed for glycerol and NEFA as a measure of lipolysis. […]
Oxidation of radiolabeled palmitate in the homogenates of adipose tissue explants as described previously (45). […] Fatty acid oxidation in cells was determined by modifying a published method (46). […] The filter discs were counted to determine the amount of ^14CO2 absorbed in the papers. […]

Chga-KO mice = experiment: Incorporation and oxidation of 14C-palmitate in vivo; details: for 14C-palmitate incorporation into lipids: CST 12 days
Experimental: FIG. 3. Effects of CST on lipogenesis from fatty acid and fatty acid oxidation in hepatic and adipose tissues. Incorporation of ^14C-palmitate into lipids in adipose (A) and liver (B) in Chga-KO mice after saline or CST treatment (5 μg/g BW, i.p./day) for 12 days. Partial oxidation to acid soluble metabolites (ASM) in adipose tissue (C) and liver (D). Complete oxidation to ^14CO2 in hepatocytes (HepG2) and adipocytes (3T3-L1) after saline or CST treatment (E).
Mice were injected with saline or CST (5 μg/g BW, i.p.; […]) for 12 days. One hr after the final injection, U-^14C-palmitate (5 μCi, 100 μl of 0.2 mM, i.p.) was injected and mice were sacrificed 3 hr later. Liver and adipose tissues (˜100 mg) were homogenized in 0.8 ml 3.5 N perchloric acid and extracted by vortexing in 3 ml of a mixture of methanol and chloroform (2:1, v/v). To the final homogenate, 1.2 ml of 3.5 N perchloric acid was added. The mixture was vortexed and centrifuged. The lower (chloroform) layer contained all the lipids derived from the incorporation of ^14C-palmitate, whereas the upper acidic layer contained partially oxidized acid-soluble metabolites (ASM) of ^14C-palmitate. The lower layer was further fractionated by thin layer chromatography on silica gel plates using hexane: diethyl ether: acetic acid (79:20:1, v/v/v) mixture as the developing solvent. Lipogenesis from palmitate was determined based on the radioactivity of the free palmitic acid band compared to other lipids (phospholipids, triglycerides, diacylglycerol, etc.) on the TLC plate. Complete oxidation of ^14C-palmitate was measured in cultured cells but not in mice.

CST-KO mice [1] = experiment: CST supplementation in NCD-fed CST-KO mice; format: in vivo
Experimental: FIG. 13. Changes in biochemical and physiological parameters in NCD-fed CST-KO mice after CST (5 μg/g BW) supplementation. […] Figures in parentheses indicate number of animals.

HFD-fed CST-KO mice = experiment: CST supplementation in HFD-fed CST-KO mice; format: in vivo
From the text: FIG. 12. Metabolic phenotypes in HFD-fed CST-KO mice. (A) CST-KO mice eat more 60% HFD than WT. (B) CST-KO mice gained more weight than WT. (C) Heightened glucose resistance at baseline in CST-KO mice compared to WT mice. […] Figures in parentheses indicate number of animals.

CST-KO mice [2] = experiment: Palmitate oxidation and hepatic gene expression in CST-KO mice; format: in vivo
From the text: FIG. 14. Palmitate oxidation. CST augmented palmitate oxidation in liver (A) and muscle (B) of both NCD- and 60% HFD-fed mice. Hepatic expression of genes involved in fatty acid oxidation such as Cpt1α(C), Acox (D) and Pparα (E). Augmented expression of these genes in Chga-KO mice indicates increased fatty acid oxidation in liver. In contrast, decreased expression in CST-KO mice indicates decreased fatty acid oxidation in liver, which was restored by supplementation with CST. Expression of lipogenic & gluconeogenic genes (F). Increased expression of Srebp1c in Chga-KO mice indicates increased lipogenesis. (G) Decreased expression of gluconeogenic gene Pepck in Chga-KO mice indicates inhibition of gluconeogenesis eventuating in increased sensitivity to insulin. In contrast, augmented expression of Pepck in CST-KO implicates increased gluconeogenesis eventuating in decreased sensitivity to insulin, which is normalized after CST supplementation. Figures in parentheses indicate number of animals.

[3] = CST-KO mice, CST 5 μg/g BW for 8 days
[4] = CST-KO mice, CST supplementation

Sequence: SSMKLSFRARAYGFRGPGPQL [CST]
- leptin production / release (3T3-L1 adipocytes): inhibited leptin production; also recorded: inhibited leptin release
- palmitate oxidation into ASMs (Chga-KO mice; adipose tissue): stimulated
- 14C-palmitate incorporation into lipids (Chga-KO mice; adipose tissue): decreased
- palmitate oxidation into ASMs (Chga-KO mice; liver): stimulated
- 14C-palmitate incorporation into lipids (Chga-KO mice; liver): enhanced
- plasma NEFA (CST-KO mice [1]; [3]): reduced; also recorded: decreased
- plasma TG (CST-KO mice [1]; [3]): reduced; also recorded: decreased
- plasma catecholamine (CST-KO mice [1]; [3]): reduced; also recorded: normalized high plasma catecholamines
- plasma glycerol (CST-KO mice [1]; [3]): increase; also recorded: increased plasma glycerol
- plasma insulin (CST-KO mice [1]; [3]): reduced; also recorded: normalized the plasma insulin concentration to the WT level; also recorded: normalized hyperinsulinemia
- plasma leptin (CST-KO mice [1]; [3]): reduced; also recorded: normalized hyperleptinemia
- hypertensive phenotype (CST-KO mice [1]; [4]): normalized
- glucose tolerance by IP-GTT (CST-KO mice [1]; NCD-fed CST-KO mice, CST 5 μg/g BW for 8 days): restored glucose tolerance; also recorded: improved glucose tolerance; also recorded: improved insulin resistance
- insulin sensitivity / glucose tolerance by IP-ITT (CST-KO mice [1]; NCD-fed CST-KO mice, CST supplementation): improved insulin sensitivity; also recorded: restored glucose tolerance; also recorded: improved insulin resistance
- basal plasma insulin level (HFD-fed CST-KO mice): decreased; also recorded: reduced hyperinsulinemia
- insulin sensitivity (IP-ITT) (HFD-fed CST-KO mice; CST 5 μg/g BW): improved insulin sensitivity; also recorded: reversed glucose resistance to glucose tolerance
- palmitate oxidation in liver (CST-KO mice [2]; [4]): stimulated; also recorded: augmented
- palmitate oxidation in muscle (CST-KO mice [2]; [4]): stimulated; also recorded: augmented
- hepatic expression of Acox (CST-KO mice [2]; liver of CST-KO mice): stimulated expression; also recorded: restored
- hepatic expression of Cpt1α (CST-KO mice [2]; liver of CST-KO mice): stimulated expression; also recorded: restored
- hepatic expression of Pepck (CST-KO mice [2]; liver of CST-KO mice): suppressed the expression; also recorded: normalized
- hepatic expression of Pparα (CST-KO mice [2]; liver of CST-KO mice): stimulated expression; also recorded: restored
- hepatic expression of Srebp1c (CST-KO mice [2]; liver of CST-KO mice): stimulated expression
